The source of these data is PubChem BioAssay AID256 (DTP/NCI, 2004).

Structures are written as SMILES. Toxic doses and inconclusive results are not listed.

This assay has as its system CD2F1 mice, L1210 leukemia ip, survival T/C. In words: NCI In Vivo Anticancer Drug Screen. Data for tumor model L1210 Leukemia (intraperitoneal) in CD2F1 (CDF1) mice. The note with it: endpoint: mean survival time, higher = longer survival. The gist of the method: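 Each value reflects a quotient of treated over vehicle control outcomes in mice with a transplanted tumor.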

The mark [1] stands for this setting: dose: 100.0 mg/kg/injection, schedule: Q04DX003 (ip), vehicle: saline with Tween-80.
[2] abbreviates: dose: 200.0 mg/kg/injection, schedule: Q04DX003 (ip), vehicle: saline with Tween-80.
[3] abbreviates: dose: 400.0 mg/kg/injection, schedule: Q04DX003 (ip), vehicle: saline with Tween-80.
Setting [4] is: dose: 100.0 mg/kg/injection, schedule: Q01DX001 (ip), vehicle: saline with Tween-80.
Setting [5] is: dose: 200.0 mg/kg/injection, schedule: Q01DX001 (ip), vehicle: saline with Tween-80.
Setting [6] is: dose: 400.0 mg/kg/injection, schedule: Q01DX001 (ip), vehicle: saline with Tween-80.
The mark [7] stands for this setting: dose: 100.0 mg/kg/injection, schedule: Q01DX009 (ip), vehicle: saline with Tween-80.
Setting [8] is: dose: 200.0 mg/kg/injection, schedule: Q01DX009 (ip), vehicle: saline with Tween-80.
[9] abbreviates: dose: 400.0 mg/kg/injection, schedule: Q01DX009 (ip), vehicle: saline with Tween-80.

For the compound `Cc1ncc([N+](=O)[O-])n1CCO`, the T/C (dose: 37.5 mg/kg/injection, schedule: Q01DX009 (ip), vehicle: Klucel (hydroxypropylcellulose) (HPC)) was 109 % of control; the T/C (dose: 37.5 mg/kg/injection, schedule: Q04DX003 (ip), vehicle: Klucel (hydroxypropylcellulose) (HPC)) was 98 % of control; the T/C (dose: 75.0 mg/kg/injection, schedule: Q01DX009 (ip), vehicle: Klucel (hydroxypropylcellulose) (HPC)) was 104 % of control; the T/C (dose: 75.0 mg/kg/injection, schedule: Q04DX003 (ip), vehicle: Klucel (hydroxypropylcellulose) (HPC)) is 103 % of control; the T/C (dose: 150.0 mg/kg/injection, schedule: Q01DX009 (ip), vehicle: Klucel (hydroxypropylcellulose) (HPC)) is 103 % of control; the T/C (dose: 150.0 mg/kg/injection, schedule: Q04DX003 (ip), vehicle: Klucel (hydroxypropylcellulose) (HPC)) is 104 % of control. Also, the T/C (dose: 300.0 mg/kg/injection, schedule: Q01DX009 (ip), vehicle: Klucel (hydroxypropylcellulose) (HPC)) was 107 % of control; the T/C (dose: 300.0 mg/kg/injection, schedule: Q04DX003 (ip), vehicle: Klucel (hydroxypropylcellulose) (HPC)) was 97 % of control; the T/C (dose: 600.0 mg/kg/injection, schedule: Q01DX009 (ip), vehicle: Klucel (hydroxypropylcellulose) (HPC)) is 92 % of control; the T/C (dose: 600.0 mg/kg/injection, schedule: Q04DX003 (ip), vehicle: Klucel (hydroxypropylcellulose) (HPC)) was 98 % of control.
For `COc1cccc2c1C(=O)c1c(O)c3c(c(O)c1C2=O)C[C@@](O)(C(C)=O)C[C@@H]3OC1CC(N(Cc2ccccc2)Cc2ccccc2)C(O)C(C)O1` (stereo not given in full), the T/C was 105 % of control (dose: 1.5 mg/kg/injection, schedule: Q01DX009 (ip), vehicle: saline with Tween-80); 111 % of control (dose: 3.0 mg/kg/injection, schedule: Q01DX009 (ip), vehicle: saline with Tween-80); 117 % of control (dose: 6.0 mg/kg/injection, schedule: Q01DX009 (ip), vehicle: saline with Tween-80); 150 % of control (dose: 12.0 mg/kg/injection, schedule: Q01DX009 (ip), vehicle: saline with Tween-80); 115 % of control (dose: 24.0 mg/kg/injection, schedule: Q01DX009 (ip), vehicle: saline with Tween-80); 94 % of control (dose: 48.0 mg/kg/injection, schedule: Q01DX009 (ip), vehicle: saline with Tween-80).
`O=C(O)Cc1c(Cl)n(-c2ccccc2)c2ccccc12`: the T/C reads like this: (dose: 25.0 mg/kg/injection, schedule: Q04DX003 (ip), vehicle: saline with Tween-80) 96 % of control; (dose: 50.0 mg/kg/injection, schedule: Q04DX003 (ip), vehicle: saline with Tween-80) 102 % of control; under setting [1], 104 % of control.
`COc1cc2c3cc1Oc1c(OC)c(OC)cc4c1[C@@H](Cc1ccc(O)c(c1)Oc1ccc(cc1)C[C@@H]3N(C)CC2)N(C)CC4`: the T/C reads like this: (dose: 75.0 mg/kg/injection, schedule: Q01DX001 (ip), vehicle: other) 96 % of control; (dose: 150.0 mg/kg/injection, schedule: Q01DX001 (ip), vehicle: other) 100 % of control.
In the case of `C[n+]1c(/C=C\c2ccc(Cl)cc2)ccc2ccccc21`, the T/C is 96 % of control (dose: 3.13 mg/kg/injection, schedule: Q01DX009 (ip), vehicle: saline with Tween-80); 98 % of control (dose: 6.25 mg/kg/injection, schedule: Q01DX009 (ip), vehicle: saline with Tween-80); 98 % of control (dose: 6.25 mg/kg/injection, schedule: Q04DX003 (ip), vehicle: saline with Tween-80); 90 % of control (dose: 12.5 mg/kg/injection, schedule: Q04DX003 (ip), vehicle: saline with Tween-80).
On to `CCCCCCC(O)CCCCCCCCCCC(=O)O` (stereo not given), for which the T/C was 98 % of control under setting [1], 92 % of control under setting [2] and 90 % of control under setting [3].
On to `Cc1ccccc1S(=O)(=O)N(C)C`, for which the T/C (dose: 100.0 mg/kg/injection, schedule: Q04DX003 (ip), vehicle: saline sonified) was 97 % of control; the T/C (dose: 200.0 mg/kg/injection, schedule: Q04DX003 (ip), vehicle: saline sonified) was 94 % of control; the T/C (dose: 400.0 mg/kg/injection, schedule: Q04DX003 (ip), vehicle: saline sonified) is 92 % of control.
For the compound `CCOC(=O)C12CCCCC1=CC1(CC2)SCCS1` (stereo not given), the T/C is 93 % of control (dose: 100.0 mg/kg/injection, schedule: Q04DX003 (ip), vehicle: acetone); 91 % of control (dose: 200.0 mg/kg/injection, schedule: Q04DX003 (ip), vehicle: acetone); 86 % of control (dose: 400.0 mg/kg/injection, schedule: Q04DX003 (ip), vehicle: acetone).
Regarding `CNC(=S)NNC(=O)C(=O)NNC(=S)NC`, the T/C is, setting by setting: under setting [4], 98 % of control; under setting [5], 98 % of control; under setting [6], 97 % of control.
On to `CC(Cl)CN(CC(C)Cl)c1ccc(S(=O)(=O)Nc2ncccn2)cc1` (stereo not given), for which, where the note is “dose: 35.0 mg/kg/injection, schedule: Q01DX009 (ip), vehicle: other”, the T/C is 114 % of control.
On to `O=S(=O)(F)c1ccc2nc(-c3cccc(Sc4ccccc4)c3)cc(Cl)c2c1`, for which the T/C by setting is: under setting [7], 97 % of control; under setting [1], 97 % of control; under setting [8], 93 % of control; under setting [2], 90 % of control; under setting [9], 97 % of control; under setting [3], 96 % of control.
In the case of `CCOC(=O)N1CCc2cc(OC)c(OC)cc2C1=C(c1ccccc1)c1ccccc1`, the T/C was 91 % of control under setting [7]; 86 % of control under setting [1]; 95 % of control under setting [8]; 88 % of control under setting [9]; 86 % of control under setting [3].
As for `CNc1ncnc2c1cnn2C1OC(CO)C(O)C1O` (stereo not given), the T/C (dose: 12.5 mg/kg/injection, schedule: Q01DX005 (ip), vehicle: water) was 93 % of control; the T/C (dose: 25.0 mg/kg/injection, schedule: Q01DX005 (ip), vehicle: water) is 102 % of control; the T/C (dose: 50.0 mg/kg/injection, schedule: Q01DX005 (ip), vehicle: water) was 104 % of control.
For `CC(=O)Nc1cccc(N=NN(C)C)c1`, the T/C reads like this: (dose: 12.5 mg/kg/injection, schedule: Q01DX009 (ip), vehicle: Klucel (hydroxypropylcellulose) (HPC)) 113 % of control; (dose: 50.0 mg/kg/injection, schedule: Q01DX009 (ip), vehicle: Klucel (hydroxypropylcellulose) (HPC)) 151 % of control; (dose: 200.0 mg/kg/injection, schedule: Q01DX009 (ip), vehicle: Klucel (hydroxypropylcellulose) (HPC)) 87 % of control.
As for `CCOc1ccccc1NC(=O)C(Br)C(Br)C(=O)O` (stereo not given), the T/C is 110 % of control under setting [4], 112 % of control under setting [5] and 108 % of control under setting [6].
Consider `O=Cc1cc(Cl)c(O)c(Cl)c1`, for which the T/C (dose: 100.0 mg/kg/injection, schedule: Q04DX003 (ip), vehicle: Klucel (hydroxypropylcellulose) (HPC)) was 94 % of control and the T/C (dose: 200.0 mg/kg/injection, schedule: Q04DX003 (ip), vehicle: Klucel (hydroxypropylcellulose) (HPC)) was 100 % of control.
As to `COc1c(C)c2c(c(OC(C)=O)c1CC(=O)O)C(=O)OC2`, the T/C by setting is: (dose: 100.0 mg/kg/injection, schedule: Q04DX002 (ip), vehicle: saline with Tween-80) 108 % of control; (dose: 200.0 mg/kg/injection, schedule: Q04DX002 (ip), vehicle: saline with Tween-80) 100 % of control; (dose: 400.0 mg/kg/injection, schedule: Q04DX002 (ip), vehicle: saline with Tween-80) 100 % of control.
Turning to `COC(=O)CC1(C(=O)OC)Nc2ccccc2C(=O)O1` (stereo not given), the T/C was 94 % of control under setting [4], 96 % of control under setting [5] and 96 % of control under setting [6].
For the compound `COCCNP(=S)(OC)OC`, the T/C reads like this: under setting [4], 100 % of control; under setting [5], 101 % of control; under setting [6], 106 % of control.
With `Cc1csc2ncnc(N)c12`, the T/C under setting [4] was 100 % of control, the T/C under setting [5] is 92 % of control and the T/C under setting [6] is 101 % of control.
Consider `Nc1ccc(N)c(N)n1`, for which the T/C by setting is: (dose: 6.25 mg/kg/injection, schedule: Q01DX009 (ip), vehicle: saline sonified) 105 % of control; (dose: 12.5 mg/kg/injection, schedule: Q01DX009 (ip), vehicle: saline sonified) 96 % of control; (dose: 25.0 mg/kg/injection, schedule: Q01DX009 (ip), vehicle: saline sonified) 108 % of control.
For the compound `CN(C)/N=C/c1cccc(CC(O)(C(F)(F)F)C(F)(F)F)n1`, the T/C is 94 % of control (dose: 50.0 mg/kg/injection, schedule: Q01DX009 (ip), vehicle: saline with Tween-80); 105 % of control under setting [4]; 96 % of control under setting [7]; 100 % of control under setting [5]; 97 % of control under setting [8].
